Measured values from patent US6673834B2, “Hydroperylene derivatives” (priority 2001, dated 2004).
Where two headings read alike, the source gives them in different places.

Experiments:
thrombocytes = assay: Test for inhibition of thrombocyte aggregation (turbidimetric, Born; aggregometer PAP 4); format: cell-based; settings: read-out: IC50 (platelet aggregation)
From the text: The inhibition of platelet aggregation can be measured, inter alia, by determining platelet aggregation turbimetrically as described by Born (Born, GV, Nature, 1962,194: 927-929).
(§1) Principle of the test: the method is based on the property that the optical density of a particle suspension depends on the […]. After a platelet suspension has been stimulated, the platelets begin to aggregate. This leads to the appearance of relatively large platelet aggregates and to an increase in light transmission. This increase is registered photometrically, and recorded in curve form, continuously. The degrees to which the thrombocytes can be aggregated, or to which this aggregation can be inhibited, can be deduced from the changes in light transmission. The method of staining cells with calcein was used for determining cytotoxicity (Hollo Z et al., Biochim Biophys Acta 11;1191(2):384-8, 1994). Living cells incorporate the substrate calcein acetoxymethyl ester (C-AM), which is hydrolyzed in the cells by nonspecific esterases. […] In the living cell, it is converted into the fluorescent hydrolysis product and the vitality of the cells can be measured on the basis of the fluorescence (λex:485 nm/λem:538 nm).
By way of example, Table 2 summarizes the inhibitory effects of some hydroperylene derivatives as IC50 values. The IC50 value indicates the concentration which inhibits thrombocyte aggregation by 50% under defined conditions.
Test for Inhibition of Thrombocyte Aggregation
The assay was carried out as follows:
Final concentration of activator: 0.05 U of thrombin/ml or 1 μg of collagen/ml
Aggregation in Aggregometer (PAP 4)
Cell number, 3×10^5 thrombocytes/μl
The blank value for the channels of the aggregometer is first of all adjusted using buffer. The thrombocytes are then pipetted into microtubes and, after the thrombocytes have been added, heated at 37° C. for a few minutes in the aggregometer. After a magnetic stirrer has been added to each reaction tube, the substances, and CaCl2, are added and a start is made in recording the course of the curve in the aggregometer. After 2 minutes of incubation, the activator, or buffer in the case of the control, is added. The course of the curve is then recorded for a further 6 min at 37° C. and at a stirrer speed of 1050 revolutions per minute.

cells = assay: Cytotoxicity by staining cells with calcein (calcein AM fluorescence); format: cell-based; settings: read-out: IC50 (toxicity)
From the text: as §1

[1] = Solubility of thioperylenol; format: physicochemical
From the text: (§2) The physicochemical and spectroscopic properties of thioperylenol can be summarized as follows:
(§3) Brownish crystals which are soluble in medium-polar and polar organic solvents and soluble in aqueous neutral buffers. Stable in neutral and mildly acidic, non-oxidizing medium but unstable in strongly acidic and strongly alkaline solution.

[2] = Stability of thioperylenol in solution; format: physicochemical
From the text: as §2, §3

[3] = concentration which inhibits thrombocyte aggregation by 50%, activator 0.05 U of thrombin/ml or 1 μg of collagen/ml, 37° C.
[4] = cell toxicity, calcein AM staining

O=C1CCC2(O)c3c(ccc(O)c31)-c1ccc(O)c3c1C2C1OC1C3=O (centres unmarked) [Altertoxin II]
IC50 (thrombocytes; [3]): 2.6 µM
IC50 (cells; [4]): 10 µM

O=C1C[C@@H](O)[C@H]2c3c(ccc(O)c31)-c1ccc(O)c3c1[C@]2(O)C=CC3=O (stereo in doubt) [Alterperylenol]
IC50 (thrombocytes; Platelet): 1.6 µM
IC50 (cells): > 100 µM

O=C1C[C@H](O)[C@@H]2c3c(ccc(O)c31)-c1ccc(O)c3c1[C@@]2(O)CCC3=O [Altertoxin I]
IC50 (thrombocytes; [3]): 29 µM
IC50 (cells; [4]): > 100 µM

Altertoxin III
IC50 (thrombocytes; [3]): 6.1 µM
IC50 (cells; [4]): 20 µM

O=C1CC(SCC(O)C(=O)O)[C@]2(O)c3c(ccc(O)c31)-c1ccc(O)c3c1C2C1OC1C3O (some centres unmarked) [Thioperylenol, thioperylenol]
IC50 (thrombocytes; Platelet, concentration which inhibits thrombocyte aggregation by 50%, activator 0.05 U of thrombin/ml or 1 μg of collagen/ml, 37° C.): 7.2 µM
IC50 (cells; [4]): 61 µM
Solubility ([1]; aqueous neutral buffers): soluble
Solubility ([1]; medium-polar and polar organic solvents): soluble
Stability ([2]; neutral and mildly acidic, non-oxidizing medium): Stable
Stability ([2]; strongly acidic and strongly alkaline solution): unstable
